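The concentration for 50% growth inhibition is given as GI50. TGI is the concentration that stops growth completely.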
Legend:
Test in all cases: NCI anticancer screen, dose series, 384-well format
[1] = test system: BT-549 breast
[2] = test system: MOLT-4 leukemia
[3] = test system: OVCAR-3 ovarian
[4] = test system: HS 578T breast
[5] = test system: DU-145 prostate
[6] = test system: SW-620 colon
[7] = test system: SF-295 CNS
[8] = test system: SNB-75 CNS
[9] = test system: UO-31 renal
[10] = test system: RPMI-8226 leukemia
[11] = test system: PC-3 prostate
[12] = test system: SK-MEL-28 melanoma
[13] = test system: COLO 205 colon
[14] = test system: SK-OV-3 ovarian
[15] = test system: NCI-H460 NSCLC
[16] = test system: T-47D breast
[17] = test system: NCI/ADR-RES ovarian
[18] = test system: HCT-116 colon
[19] = test system: UACC-257 melanoma
[20] = test system: OVCAR-4 ovarian
[21] = test system: UACC-62 melanoma
[22] = test system: A549 NSCLC
[23] = test system: OVCAR-8 ovarian
[24] = test system: NCI-H522 lung
[25] = test system: IGROV1 ovarian
[26] = test system: 786-0 renal
[27] = test system: MALME-3M melanoma
[28] = test system: NCI-H322M lung
[29] = test system: SK-MEL-5 melanoma
[30] = test system: K-562 leukemia
[31] = test system: HL-60(TB) leukemia
[32] = test system: OVCAR-5 ovarian
[33] = test system: HCT-15 colon
[34] = test system: MCF7 breast
[35] = test system: ACHN renal
[36] = test system: MDA-MB-435 melanoma
[37] = test system: HOP-92 NSCLC
[38] = test system: NCI-H23 lung
[39] = test system: CAKI-1 renal
[40] = test system: M14 melanoma
[41] = test system: SF-268 CNS
[42] = test system: SF-539 CNS
[43] = test system: SN12C renal
[44] = test system: LOX IMVI melanoma
[45] = test system: RXF 393 renal
[46] = test system: U251 glioblastoma
[47] = test system: HT29 colon
[48] = test system: HCC-2998 colon
[49] = test system: A498 renal
[50] = test system: NCI-H226 lung
[51] = test system: HOP-62 NSCLC
[52] = test system: CCRF-CEM leukemia
[53] = test system: MDA-MB-468 breast
[54] = test system: EKVX NSCLC
[55] = test system: KM12 colon
[56] = test system: TK-10 renal
[57] = test system: SNB-19 CNS
[58] = test system: MDA-MB-231 breast
[59] = test system: SR leukemia

Cc1ccc(-n2nc(C(C)(C)C)cc2NC(=O)NCc2cc(F)ccc2Oc2ccc3c(cnn3CCO)c2)cc1
GI50 [1]: 4.9 µM | TGI [1]: 27.2 µM | GI50 [2]: 1.9 µM | TGI [2]: 5.02 µM | GI50 [3]: 8.85 µM | TGI [3]: 24.3 µM | GI50 [4]: 2.63 µM | TGI [4]: 15.6 µM | GI50 [5]: 15 µM | TGI [5]: > 100 µM | GI50 [6]: 10.5 µM | TGI [6]: > 100 µM | GI50 [7]: 18 µM | TGI [7]: > 100 µM | GI50 [8]: 12.2 µM | TGI [8]: 89 µM | GI50 [9]: 3.16 µM | TGI [9]: 20.8 µM | GI50 [10]: 4.07 µM | TGI [10]: 32 µM | GI50 [11]: 6.72 µM | TGI [11]: 53.1 µM | GI50 [12]: 1.26 µM | TGI [12]: 4.32 µM | GI50 [13]: 1.26 µM | TGI [13]: 12.3 µM | GI50 [14]: 9.15 µM | TGI [14]: > 100 µM | GI50 [15]: 6.4 µM | TGI [15]: 20.6 µM | GI50 [16]: 1.82 µM | TGI [16]: 8.64 µM | GI50 [17]: 7.83 µM | TGI [17]: 66.4 µM | GI50 [18]: 3.13 µM | TGI [18]: 16 µM | GI50 [19]: 1.87 µM | TGI [19]: 5.7 µM | GI50 [20]: 12.5 µM | TGI [20]: 31.8 µM | GI50 [21]: 0.665 µM | TGI [21]: 5.74 µM | GI50 [22]: 7.81 µM | TGI [22]: > 100 µM | GI50 [23]: 13 µM | TGI [23]: > 100 µM | GI50 [24]: 3.91 µM | TGI [24]: 17.1 µM | GI50 [25]: 2.39 µM | TGI [25]: 18 µM | GI50 [26]: 4.93 µM | TGI [26]: > 100 µM | GI50 [27]: 0.357 µM | TGI [27]: 1.49 µM | GI50 [28]: 6.36 µM | TGI [28]: > 100 µM | GI50 [29]: 1.06 µM | TGI [29]: 6.63 µM | TGI [30]: 0.0258 µM | GI50 [31]: 1.67 µM | TGI [31]: 4.48 µM | GI50 [32]: 4.52 µM | TGI [32]: 50.9 µM | GI50 [33]: 5.14 µM | TGI [33]: > 100 µM | GI50 [34]: 2.7 µM | TGI [34]: 14.3 µM | GI50 [35]: 3.28 µM | TGI [35]: 62.9 µM | GI50 [36]: 2.74 µM | TGI [36]: 89.2 µM | GI50 [37]: 4.1 µM | TGI [37]: 29.8 µM | GI50 [38]: 1.78 µM | TGI [38]: 6.08 µM | GI50 [39]: 3.07 µM | TGI [39]: > 100 µM | GI50 [40]: 0.427 µM | TGI [40]: 3.11 µM | GI50 [41]: 0.0455 µM | TGI [41]: 1.62 µM | GI50 [42]: 2.72 µM | TGI [42]: 28.6 µM | GI50 [43]: 3.94 µM | TGI [43]: 33 µM | GI50 [44]: 1.62 µM | TGI [44]: 4.41 µM | GI50 [45]: 3.38 µM | TGI [45]: 14.5 µM | GI50 [46]: 10.3 µM | TGI [46]: > 100 µM | GI50 [47]: 1.86 µM | TGI [47]: 13.8 µM | GI50 [48]: 3.47 µM | TGI [48]: 13.2 µM | GI50 [49]: 8.98 µM | TGI [49]: 71.8 µM | GI50 [50]: 0.44 µM | TGI [50]: 13.3 µM | GI50 [51]: 4.67 µM | TGI [51]: 27.1 µM | GI50 [52]: 4.51 µM | TGI [52]: 16.7 µM | GI50 [53]: 4.56 µM | TGI [53]: 15 µM | GI50 [54]: 4.58 µM | TGI [54]: 27.7 µM | GI50 [55]: 1.56 µM | TGI [55]: 11.9 µM | GI50 [56]: 13.9 µM | TGI [56]: 87.4 µM | GI50 [57]: 29.1 µM | TGI [57]: > 100 µM | GI50 [58]: 3.17 µM | TGI [58]: > 100 µM

COc1ccc(F)c(F)c1C(=O)c1cnc(NC2CCN(S(C)(=O)=O)CC2)nc1N
GI50 [1]: 0.0441 µM | TGI [1]: 0.434 µM | GI50 [2]: 0.0912 µM | TGI [2]: 0.396 µM | GI50 [3]: 0.305 µM | TGI [3]: 1.45 µM | GI50 [4]: 0.206 µM | TGI [4]: 0.492 µM | GI50 [5]: 0.211 µM | TGI [5]: 0.977 µM | GI50 [8]: 0.0864 µM | TGI [8]: 1.73 µM | GI50 [10]: 0.0209 µM | TGI [10]: 0.124 µM | GI50 [11]: 0.284 µM | TGI [11]: 2.13 µM | GI50 [12]: 0.161 µM | TGI [12]: 1.58 µM | GI50 [14]: 1.03 µM | TGI [14]: > 100 µM | GI50 [15]: 0.0302 µM | TGI [15]: 0.162 µM | GI50 [16]: 0.306 µM | TGI [16]: > 100 µM | GI50 [19]: 1.03 µM | TGI [19]: 2.62 µM | GI50 [21]: 0.138 µM | TGI [21]: 0.453 µM | GI50 [22]: 0.169 µM | TGI [22]: > 100 µM | GI50 [23]: 0.144 µM | TGI [23]: 0.917 µM | GI50 [25]: 0.222 µM | TGI [25]: > 100 µM | GI50 [27]: 0.379 µM | TGI [27]: 2 µM | GI50 [28]: 0.215 µM | TGI [28]: 0.602 µM | GI50 [29]: 0.082 µM | TGI [29]: 0.609 µM | GI50 [31]: 0.0158 µM | TGI [31]: 0.125 µM | GI50 [33]: 0.187 µM | TGI [33]: > 100 µM | GI50 [36]: 0.251 µM | TGI [36]: 1.6 µM | GI50 [37]: 0.31 µM | TGI [37]: > 100 µM | GI50 [38]: 0.14 µM | TGI [38]: 0.774 µM | GI50 [59]: 0.0157 µM | TGI [59]: 0.039 µM | GI50 [40]: 0.346 µM | TGI [40]: 1.64 µM | GI50 [41]: 0.129 µM | TGI [41]: 0.361 µM | GI50 [42]: 0.137 µM | TGI [42]: 0.501 µM | GI50 [43]: 0.139 µM | TGI [43]: 0.681 µM | GI50 [45]: 0.159 µM | TGI [45]: 0.345 µM | GI50 [46]: 0.278 µM | TGI [46]: > 100 µM | GI50 [47]: 0.206 µM | TGI [47]: 2.05 µM | GI50 [48]: 0.289 µM | TGI [48]: 1.91 µM | GI50 [50]: 0.164 µM | TGI [50]: 0.753 µM | GI50 [51]: 0.135 µM | TGI [51]: 0.466 µM | GI50 [52]: 0.072 µM | TGI [52]: 0.234 µM | GI50 [54]: 0.424 µM | TGI [54]: 3.16 µM | GI50 [55]: 0.108 µM | TGI [55]: 0.456 µM | GI50 [56]: 0.304 µM | TGI [56]: > 100 µM | GI50 [57]: 0.348 µM | TGI [57]: > 100 µM | GI50 [58]: 0.201 µM | TGI [58]: 3.7 µM

Reference: PubChem BioAssay (NCI)
